Assay results taken from US20260062422A1 (Halda Therapeutics OpCo, Inc., priority 2022, published 2026).

Legend:
[1] = tested on: T-Rex 293 cell line SC3 cells having increased expression of androgen receptor protein due to exposure to doxycycline; assay: Cellular growth inhibition, T-Rex 293 SC3 cells with doxycycline (androgen receptor induced), CellTiter-Glo; assay type: cell-based; conditions: T-Rex 293 SC3 cells with 10 ng/mL doxycycline (increased androgen receptor expression)
In short: (§1)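 SC3 is a T-Rex 293 clone stably transfected with wild-type androgen receptor in pcDNA4/TO, inducible by 10 ng/mL doxycycline. Cells were grown in phenol red-free DMEM with 10% charcoal-dextran FBS, with or without doxycycline, dosed 24 h after seeding (0.5% DMSO) for 72 h. Viability was read by CellTiter-Glo 2.0 luminescence and GI50 obtained from four-parameter fits.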

T47D cells = assay: Cellular growth inhibition assay for T47D cells, CellTiter-Glo; assay type: cell-based, human; conditions: Homo sapiens, T47D, 72 h, 72 hours treatment, CellTiter-Glo 2.0 cell viability
In short: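 Luminescence from CellTiter-Glo 2.0 after 72 h of compound exposure gives the viability signal. Cells grew in insulin-supplemented (0.2 units/mL) DMEM with 10% FBS and were treated one day after seeding at 0.5% DMSO. GI50 values come from four-parameter nonlinear regression.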

[2] = tested on: T-Rex 293 cell line SC3 cells lacking increased expression of androgen receptor protein; assay: Cellular growth inhibition, T-Rex 293 SC3 cells without doxycycline, CellTiter-Glo; assay type: cell-based; conditions: T-Rex 293 SC3 cells not exposed to doxycycline, CellTiter-Glo 2.0
In short: as §1

VCaP cells = assay: Cellular growth inhibition assay for VCaP cells, CellTiter-Glo; assay type: cell-based, human; conditions: 72 hours treatment, CellTiter-Glo 2.0
In short: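 GI50 values come from four-parameter curve fits of luminescence data normalized to a zero baseline. Compound, in medium with 0.5% DMSO, was added one day after plating and left for 72 h before CellTiter-Glo 2.0 addition.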

Compound | GI50 ([1]; 72 h) [nM] | GI50 (T47D cells) [nM] | GI50 ([2]; 72 h) [nM] | GI50 (VCaP cells; Homo sapiens, VCaP, 72 h) [nM] | GI50 ([1]; 72 hours) [nM] | GI50 ([2]; 72 hours) [nM] | GI50 (VCaP cells) [nM]
Cc1sc2c(c1C)C(c1ccc(N3CCC[C@H](C(=O)N4CCC[C@@H](c5ncc(C(=O)N[C@H]6C(C)(C)[C@H](Oc7ccc(C#N)c(Cl)c7)C6(C)C)cn5)C4)C3)cc1)=N[C@@H](Cc1ncco1)c1nnc(C)n1-2 [Compound I-337] | < 500 | < 500 | 500 to 1500 | < 500 |  |  | 
Cc1sc2c(c1C)C(c1ccc(C3CC(C4CCN(c5cnc(C(=O)N[C@H]6C(C)(C)[C@H](Oc7ccc(C#N)c(Cl)c7)C6(C)C)cn5)CC4)C3)cc1)=NC(C)c1nnc(C)n1-2 (stereo partly drawn) [Compound I-469] |  | < 500 |  |  | < 500 | 500 to 1500 | < 500
Cc1sc2c(c1C)C(c1ccc([C@H]3CC[C@]4(C3)CN(c3ncc(C(=O)N[C@H]5C(C)(C)[C@H](Oc6ccc(C#N)c(Cl)c6)C5(C)C)cn3)CCO4)cc1)=N[C@@H](Cc1ncco1)c1nnc(C)n1-2 [Compound I-404] | > 3000 | > 3000 | > 3000 | > 3000 |  |  | 
Cc1sc2c(c1C)C(c1ccc(CCN3CC[C@]4(C3)CN(c3ncc(C(=O)N[C@H]5C(C)(C)[C@H](Oc6ccc(C#N)c(Cl)c6)C5(C)C)cn3)CCO4)cc1)=N[C@@H](Cc1ncco1)c1nnc(C)n1-2 [Compound I-242] | < 500 | < 500 | < 500 | < 500 |  |  | 
Cc1sc2c(c1C)C(c1ccc(CCCCC3CCN(c4ncc(C(=O)N[C@H]5C(C)(C)[C@H](Oc6ccc(C#N)c(Cl)c6)C5(C)C)cn4)CC3)cc1)=NC(Cc1ncco1)c1nnc(C)n1-2 (stereo partly drawn) [Compound I-135] | < 500 | < 500 | > 3000 | < 500 |  |  | 
COCC[C@@H]1N=C(c2ccc(N3CC(C4CCN(c5ncc(C(=O)N[C@H]6C(C)(C)[C@H](Oc7ccc(C#N)c(Cl)c7)C6(C)C)cn5)CC4)C3)cc2)c2c(sc(C)c2C)-n2c(C)nnc21 [Compound I-610] | < 500 | 1500 to 3000 | > 3000 | < 500 |  |  | 
Cc1sc2c(c1C)C(c1ccc(N(C)CC(=O)NCc3ncc(C(=O)N[C@H]4C(C)(C)[C@H](Oc5ccc(C#N)c(Cl)c5)C4(C)C)cn3)cc1)=N[C@H](Cc1ncco1)c1nnc(C)n1-2 [Compound I-374] | > 3000 | 500 to 1500 | > 3000 | < 500 |  |  | 
COCC[C@@H]1N=C(c2ccc(OC3CC4(CCCN(c5ncc(C(=O)N[C@H]6C(C)(C)[C@@H](Oc7ccc(C#N)c(Cl)c7)C6(C)C)cn5)C4)C3)cc2)c2c(sc(C)c2C)-n2c(C)nnc21 [Compound I-569] | < 500 | > 3000 | > 3000 | < 500 |  |  | 
Cc1sc2c(c1C)C(c1ccc(CC3CC4(C3)CN(c3ncc(C(=O)N[C@H]5C(C)(C)[C@H](Oc6ccc(C#N)c(Cl)c6)C5(C)C)cn3)C4)cc1)=N[C@H](Cc1ncco1)c1nnc(C)n1-2 [Compound I-152] | < 500 | > 3000 | > 3000 | > 3000 |  |  | 
COC[C@@H]1N=C(c2ccc(OC3CC4(CCN(c5ncc(C(=O)N[C@H]6C(C)(C)[C@H](Oc7ccc(C#N)c(Cl)c7)C6(C)C)cn5)CC4)C3)cc2)c2c(sc(C)c2C)-n2c(C)nnc21 [Compound I-565] | < 500 | 1500 to 3000 | > 3000 | < 500 |  |  | 
Cc1sc2c(c1C)C(c1ccc(C=C3CC4(CCCN(c5ncc(C(=O)N[C@H]6C(C)(C)[C@H](Oc7ccc(C#N)c(Cl)c7)C6(C)C)cn5)C4)C3)cc1)=N[C@@H](Cc1ncco1)c1nnc(C)n1-2 [Compound I-225, N-[3-(3-chloro-4-cyano-phenoxy)-2,2,4,4-tetramethyl-cyclobutyl]-2-[2-[[4-[(9S)-4,5,13-trimethyl-9-(oxazol-2-ylmethyl)-3-thia-1,8,11,12-tetrazatricyclo[8.3.0.02,6]trideca-2(6),4,7,10,12-pentaen-7-yl]phenyl]methylene]-6-azaspiro[3.5]nonan-6-yl]pyrimidine-5-carboxamide] | < 500 | 500 to 1500 | 500 to 1500 | 1500 to 3000 |  |  | 
Cc1sc2c(c1C)C(c1ccc(C3(N(C)CC4CCN(c5ncc(C(=O)N[C@H]6C(C)(C)[C@H](Oc7ccc(C#N)c(Cl)c7)C6(C)C)cn5)CC4)COC3)cc1)=N[C@@H](C)c1nnc(C)n1-2 [Compound I-377] | > 3000 | > 3000 | > 3000 | > 3000 |  |  | 
Cc1sc2c(c1C)C(c1ccc(OC[C@@H]3CCCN(c4ncc(C(=O)N[C@H]5C(C)(C)[C@H](Oc6ccc(C#N)c(Cl)c6)C5(C)C)cn4)C3)cc1)=N[C@@H](C)c1nnc(C)n1-2 [Compound I-352] | < 500 | > 3000 | > 3000 | < 500 |  |  | 
Cc1sc2c(c1C)C(c1ccc(CC[C@@H]3CCCN(c4ncc(C(=O)N[C@H]5C(C)(C)[C@H](Oc6ccc(C#N)c(Cl)c6)C5(C)C)cn4)C3)cc1)=N[C@@H](Cc1ncco1)c1nnc(C)n1-2 [Compound I-299] | < 500 | 1500 to 3000 | 500 to 1500 | < 500 |  |  | 
Cc1sc2c(c1C)C(c1ccc(N3CC[C@@H](CNc4ncc(C(=O)N[C@H]5C(C)(C)[C@H](Oc6ccc(C#N)c(Cl)c6)C5(C)C)cn4)C3)cc1)=NC(Cc1ncco1)c1nnc(C)n1-2 (stereo partly drawn) [Compound I-648] | < 500 | < 500 | < 500 | < 500 |  |  | 
Cc1sc2c(c1C)C(c1ccc(C[C@@H]3CC[C@]4(CCCN(c5ncc(C(=O)N[C@H]6C(C)(C)[C@H](Oc7ccc(C#N)c(Cl)c7)C6(C)C)cn5)C4)C3)cc1)=N[C@@H](Cc1ncco1)c1nnc(C)n1-2 [Compound I-165] | < 500 | 1500 to 3000 | > 3000 | 500 to 1500 |  |  | 
Cc1sc2c(c1C)C(c1ccc(CCCN3CC4(C3)CN(c3ncc(C(=O)N[C@H]5C(C)(C)[C@H](Oc6ccc(C#N)c(Cl)c6)C5(C)C)cn3)C4)cc1)=N[C@@H](C)c1nnc(C)n1-2 [Compound I-348] | < 500 | < 500 | 1500 to 3000 | < 500 |  |  | 
Cc1sc2c(c1C)C(c1ccc(OCCOC3CCN(c4ncc(C(=O)N[C@H]5C(C)(C)[C@H](Oc6ccc(C#N)c(Cl)c6)C5(C)C)cn4)CC3)cc1)=N[C@@H](CC(=O)NC(C)C)c1nnc(C)n1-2 [Compound I-65] | < 500 | 500 to 1500 | < 500 | < 500 |  |  | 
Cc1sc2c(c1C)C(c1ccc(C[C@H]3C[C@@]4(CN(c5ncc(C(=O)N[C@H]6C(C)(C)[C@H](Oc7ccc(C#N)c(Cl)c7)C6(C)C)cn5)CCO4)C3)cc1)=N[C@@H](Cc1ncco1)c1nnc(C)n1-2 [Compound I-244] | < 500 | > 3000 | > 3000 | > 3000 |  |  | 
Cc1sc2c(c1C)C(c1ccc(OC3CC4(CCN(c5ncc(C(=O)N[C@H]6C(C)(C)[C@H](Oc7ccc(C#N)c(Cl)c7)C6(C)C)cn5)CC4)C3)cc1)=N[C@@](C)(C(C)c1ncco1)c1nnc(C)n1-2 (stereo partly drawn) [Compound I-262] | < 500 | > 3000 | > 3000 | > 3000 |  |  | 
Cc1sc2c(c1C)C(c1ccc(OC3CC4(CCN(c5ncc(C(=O)N[C@H]6C(C)(C)[C@H](Oc7ccc(C#N)c(Cl)c7)C6(C)C)cn5)CC4)C3)cc1)=N[C@@H](C)c1nnc(C)n1-2 [Compound I-391] | < 500 | 500 to 1500 | > 3000 | 1500 to 3000 |  |  | 
